Consider 4 compounds from patent US11168054B2, “Biaromatic compounds, which are vitamin D analogs” (DSM IP ASSETS B.V., priority 2015, dated 2021).

The target in this assay is T1, ligand-binding domain of the human VDR linked to the DNA-binding domain of the yeast transcription factor GAL4 (Homo sapiens, UniProt P11473).
T1 construct: expressed in transfected cells; host or cells: HEK293
T1 sequence (P11473 127-423 limits assumed): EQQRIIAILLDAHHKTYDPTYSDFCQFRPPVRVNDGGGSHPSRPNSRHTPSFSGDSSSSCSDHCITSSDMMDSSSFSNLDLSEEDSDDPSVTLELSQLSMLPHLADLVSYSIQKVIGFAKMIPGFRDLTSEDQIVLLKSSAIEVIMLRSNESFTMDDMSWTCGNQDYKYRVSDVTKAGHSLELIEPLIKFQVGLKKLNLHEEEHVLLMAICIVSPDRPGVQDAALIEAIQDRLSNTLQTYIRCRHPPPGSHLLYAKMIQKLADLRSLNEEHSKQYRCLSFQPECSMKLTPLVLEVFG
Put plainly: Human vitamin D receptor (VDR) agonist activity, cell based GAL4 hybrid luciferase transactivation assay. Particulars: HEK293 cells transiently transfected with VDR-LBD/GAL4 hybrid receptor and pFR-Luc reporter; 16 h incubation; luciferase luminescence; read-out: Effective concentrations of half maximal activation (EC50). The source says: By way of example, the human vitamin D receptor (VDR) agonist activity of the claimed compounds can be tested using a cell based transactivation assay in an eukaryotic cell line. After a co-transfection, using a reporter plasmid construct and a hybrid receptor construct containing the ligand-binding domain of the human VDR linked to the DNA-binding domain of the yeast transcription factor GAL4, the cultured cells were stimulated by the VDR agonists. The hybrid VDR-GAL4 receptor binds the VDR agonists and transactivates luciferase reporter expression through the GAL4-response elements in the promoter of the luciferase gene (reporter construct). The VDR agonist binding and transactivation is determined by measuring the luciferase luminescence activity. The effective concentration of half maximal activation (EC50) was determined for the VDR agonists by means of dose-response experiments. The details of the protocol method of this test according to the invention are described in the example section.
Testing of the Human Vitamin D Receptor (VDR) Agonist Activity of the Compounds
The transient transfections were performed in HEK293 cells (ATCC, Molsheim, France) grown in minimum essential medium (Eagle) with Earle's balanced salt solution without L-glutamine and supplemented with 10% fetal bovine serum (Sigma-Aldrich Corp., St. Gallen, Switzerland), 2 mM glutamax (Life Technologies AG, Basel, Switzerland), 0.1 mM non-essential amino acids (Life Technologies), and 1 mM sodium pyruvate (Life Technologies) at 37° C. in 5% CO2. […] The cells were transiently transfected before stimulation the next day at >80% confluence by polyethylene-imine-based transfection. Compound stocks were prepared in DMSO, pre-diluted in PBS (0.45% final DMSO concentration), and added in the respective dilution 5 h after the addition of the transfection mixture onto the cells. The cells were again incubated for additional 16 h before firefly and renilla luciferases activity was measured sequentially in the same cell extract using buffers according to established protocols (Promega AG, Dübendorf, Switzerland). Transfection efficiency was controlled to the pRL-TK renilla luciferase reporter expression.
As for `CC/C(=C\C=C\C(O)(CC)CC)c1cccc(CCc2ccc3c(c2)C(O)C(C)(C)C3O)c1` (stereo not shown) [I-a, (5-(3-((3E,5E)-7-ethyl-7-hydroxynona-3,5-dien-3-yl)phenethyl)-2,2-dimethyl-2,3-dihydro-1H-indene-1,3-diol)], the EC50 was 14 nM.
With `CCCC1C(O)c2ccc(CCc3cccc(/C(=C/C=C/C(O)(CC)CC)CC)c3)cc2C1O` (stereo not shown) [Comp1, reference compound] the figure was 210 nM; with `CC/C(=C\C=C\C(O)(CC)CC)c1cccc(CCc2ccc3c(c2)C(O)CC3O)c1` (stereo not shown) [I-c, 5-(3-((3E,5E)-7-ethyl-7-hydroxynona-3,5-dien-3-yl)phenethyl)-2,3-dihydro-M-indene-1,3-diol], 49 nM.
`CC/C(=C\C=C\C(O)(CC)CC)c1cccc(CCc2ccc3c(c2)C(O)C(C)C3O)c1` (stereo not shown) [I-b, 5-(3-((3E,5E)-7-ethyl-7-hydroxynona-3,5-dien-3-yl)phenethyl)-2-methyl-2,3-dihydro-1H-indene-1,3-diol]: the EC50 was 34 nM.
